Measured values as given in patent EP4810040A2, “INHIBITORS OF APOL1 AND METHODS OF USING SAME” (priority 2020, dated 2022).

Target: T1, APOL1 G1 (Homo sapiens, UniProt O14791, I384M/S342G)
T1 sequence (O14791 28-398 S342G/I384M): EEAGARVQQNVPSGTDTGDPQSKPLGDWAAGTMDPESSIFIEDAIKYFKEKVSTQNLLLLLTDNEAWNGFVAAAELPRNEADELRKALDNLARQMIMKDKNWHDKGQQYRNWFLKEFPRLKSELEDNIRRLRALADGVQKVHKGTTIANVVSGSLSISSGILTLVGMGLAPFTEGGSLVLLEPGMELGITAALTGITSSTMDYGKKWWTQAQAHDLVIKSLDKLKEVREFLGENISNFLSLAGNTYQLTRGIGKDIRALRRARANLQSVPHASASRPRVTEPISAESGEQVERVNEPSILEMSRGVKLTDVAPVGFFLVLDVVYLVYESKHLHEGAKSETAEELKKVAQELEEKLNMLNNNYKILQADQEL
Assay: MultiTox-Fluor Multiplex Cytotoxicity Assay, tet-inducible APOL1 G1 T-REx-HEK293 cells
Assay type: cell-based
Design: expressed in transfected cells; host or cells: T-REx HEK293, clone G1 DC3.25 (pAAVS1-Puro-APOL1 G1)
Conditions: for IC90: HEK293, Multi-Tox Assay, APOL1 variant (G0/G1/G2) of the HEK293 cells not given, read-out: Multi-Tox Assay IC90; for Emax / Multi-Tox Assay Max Activity (%): Multi-Tox Assay, APOL1 variant not given; for Emax: read-out: Multi-Tox Assay Max Activity (%)
Description: The MultiTox-Fluor Multiplex Cytotoxicity Assay is a single-reagent-addition, homogeneous, fluorescence assay that measures the number of live and dead cells simultaneously in culture wells. The assay measures cell viability and cytotoxicity by detecting two distinct protease activities. The live-cell protease activity is restricted to intact viable cells and is measured using a fluorogenic, cell-permeant peptide glycyl-phenylalanylamino fluorocoumarin (GF-AFC) substrate. The substrate enters intact cells, where it is cleaved to generate a fluorescent signal proportional to the number of living cells. […] A second, cell-impermeant, fluorogenic peptide substrate (bis-AAF-R110 Substrate) is used to measure dead-cell protease that has been released from cells that have lost membrane integrity. A ratio of dead to live cells is used to normalize data.
Briefly, the tet-inducible transgenic APOL1 T-REx-HEK293 cell lines were incubated with 50 ng/mL tet to induce APOL1 in the presence of 3-(2-(4-fluorophenyl)-1H-indol-3-yl)-N-((3S,4R)-4-hydroxy-2-oxopyrrolidin-3-yl)propenamide at […], 0.0045, 0.0015, 0.0005 µM in duplicate for 24 hours in a humidified 37°C incubator. The MultiTox reagent was added to each well and placed back in the incubator for an additional 30 minutes. The plate was read on the EnVision plate reader. A ratio of dead to live cells was used to normalize, and data was imported, analyzed and fit using Genedata Screener (Basel, Switzerland) software. Data was normalized using percent of control, no tet (100% viability), and 50 ng/mL tet treated (0% viability),and fit using Smart Fit. The reagents, methods, and complete protocol for the MultiTox assay are described below. Table 42. Reagents Used in the Multi-Tox Assay
Human embryonic kidney (HEK293) cell lines containing a tet-inducible expression system (T-REx™; Invitrogen, Carlsbad, CA) and Adeno-associated virus site 1 pAA VS1-Puro-APOL1 G0 or pAAVS1-Puro-APOL1 G1 or pAAVS1-Puro-APOL1 G2 Clones G0 DC2.13, G1 DC3.25, and G2 DC4.44 were grown in a T-225 flask at ~90% confluency in cell growth media (DMEM, 10% Tet-free FBS, 2 mM L-glutamine, 100 Units/mL penicillin-streptomycin, 5 µg/mL blasticidin S HCl, 1 µg/mL puromycin dihydrochloride). Cells were washed with DPBS and then trypsinized to dissociate from the flask. Media was used to quench the trypsin, cells were then pelleted at 200g and resuspended in fresh cell assay media (DMEM, 2% Tet-free FBS, 2 mM L-glutamine, 100 Units/mL penicillin-streptomycin). Cells were counted and diluted to 1.17 x 10^6 cells/mL. 20 µL of cells (23,400/well) were dispensed to every well of a 384-well Poly-D-Lysine coated plate using the Multidrop dispenser. The plates were then incubated at room temperature for one hour.
Tetracycline is needed to induce APOL1 expression. 1 mg/mL tet stock in water was diluted to 250 ng/mL (5X) in cell assay media. 60 µL of cell assay media (no tet control) was dispensed in columns 1 and 24, and 60 µL of 5X tet was dispensed in 384-PP-round bottom plate in columns 2 to 23 with the Multidrop dispenser.
Assay ready plates from the Global Compound Archive were ordered using template 384_APOL1Cell_DR10n2_50uM_v3. Compounds were dispensed at 200 nL in DMSO. The final top concentration was 10 µM with a 10 point 3-fold dilution in duplicate in the MultiTox assay.
20 µL were transferred from the 5X tet plate to the ARP and mixed, then 5 µL of 5X tet and the compounds were transferred to the cell plate and mixed using the Bravo. The cell plate was placed in the humidified 37°C 5% CO2 incubator for 24 hours.
The MultiTox-Fluor Multiplex Cytotoxicity Assay was performed in accordance with the manufacturer's protocol. […]

Compound: C[C@H]1C[C@@]2(C[C@@H](c3c[nH]nn3)N1)OCCc1cc(Cl)sc12 (racemic) [Compound 72]
- IC90: < 0.05 µM
- Emax: 99.7%

Compound: Cc1cc([C@@H]2C[C@]3(C[C@H](C)N2)OCCc2cc(Cl)sc23)[nH]n1 (racemic) [Compound 73]
- IC90: < 0.05 µM
- Emax: 99.8%

Compound: C[C@H]1C[C@@]2(C[C@@H](c3cn4c(n3)COCC4)N1)OCCc1cc(Cl)sc12 (racemic) [Compound 74]
- IC90: < 0.05 µM
- Emax: 99.2%

Compound: C[C@H]1C[C@@]2(C[C@@H](c3cnc(N(C)C)nc3)N1)OCCc1cc(Cl)sc12 (racemic) [Compound 75]
- IC90: < 0.05 µM
- Emax: 100%

Compound: Cc1ccc([C@@H]2C[C@]3(C[C@H](C)N2)OCCc2cc(Cl)sc23)nc1 (racemic) [Compound 77]
- IC90: < 0.05 µM
- Emax: 99%

Compound: C[C@H]1C[C@@]2(C[C@@H](c3ccc(S(N)(=O)=O)cc3F)N1)OCCc1cc(Cl)sc12 (racemic) [Compound 78]
- IC90: < 0.05 µM
- Emax: 99.7%

Compound: C[C@H]1C[C@@]2(C[C@@H](c3cocn3)N1)OCCc1cc(Cl)sc12 (racemic) [Compound 79]
- IC90: 0.05 to 0.5 µM
- Emax: 99.7%

Compound: C[C@H]1C[C@@]2(C[C@@H](c3ccc(=O)n(C)c3)N1)OCCc1cc(Cl)sc12 (racemic) [Compound 80]
- IC90: < 0.05 µM
- Emax: 99.7%

Compound: C[C@H]1C[C@@]2(C[C@@H](c3ccccc3)N1)OCCc1cc(Cl)sc12 (racemic) [Compound 81]
- IC90: < 0.05 µM
- Emax: 99.7%

Compound: Cc1ncc([C@@H]2C[C@]3(C[C@H](C)N2)OCCc2cc(Cl)sc23)cn1 (racemic) [Compound 82]
- IC90: < 0.05 µM
- Emax: 99.7%

Compound: C[C@H]1C[C@@]2(C[C@@H](c3ccccn3)N1)OCCc1cc(Cl)sc12 (racemic) [Compound 83]
- IC90: < 0.05 µM
- Emax: 99%

Compound: COc1ccc2[nH]c([C@@H]3C[C@]4(C[C@H](C)N3)OCCc3cc(Cl)sc34)cc2n1 (racemic) [Compound 84]
- IC90: < 0.05 µM
- Emax: 99.8%

Compound: C[C@H]1C[C@@]2(C[C@@H](c3c[nH]cn3)N1)OCCc1cc(Cl)sc12 (racemic) [Compound 85]
- IC90: < 0.05 µM
- Emax: 99.3%

Compound: C[C@H]1C[C@@]2(C[C@@H](c3cc(C4CC4)no3)N1)OCCc1cc(Cl)sc12 (racemic) [Compound 87]
- IC90: < 0.05 µM
- Emax: 99.3%

Compound: C[C@H]1C[C@@]2(C[C@@H](c3ccc(N(C)C)nc3)N1)OCCc1cc(Cl)sc12 (racemic) [Compound 89]
- IC90: < 0.05 µM
- Emax: 99.3%

Compound: COCCn1cc([C@@H]2C[C@]3(C[C@H](C)N2)OCCc2cc(Cl)sc23)cn1 (racemic) [Compound 90]
- IC90: < 0.05 µM
- Emax: 100%

Compound: C[C@H]1C[C@@]2(C[C@@H](c3cccnn3)N1)OCCc1cc(Cl)sc12 (racemic) [Compound 92]
- IC90: < 0.05 µM
- Emax: 100%

Compound: C[C@H]1C[C@@]2(C[C@@H](c3ccnnc3)N1)OCCc1cc(Cl)sc12 (racemic) [Compound 93]
- IC90: < 0.05 µM
- Emax: 99.3%

Compound: Cc1ncc([C@@H]2C[C@]3(C[C@H](C)N2)OCCc2cc(Cl)sc23)o1 (racemic) [Compound 94]
- IC90: < 0.05 µM
- Emax: 100%

Compound: C[C@H]1C[C@@]2(C[C@@H](c3cnc(NC(C)(C)CO)nc3)N1)OCCc1cc(Cl)sc12 (racemic) [Compound 95]
- IC90: < 0.05 µM
- Emax: 99.8%

Compound: C[C@H]1C[C@@]2(C[C@@H](c3ccon3)N1)OCCc1cc(Cl)sc12 (racemic) [Compound 96]
- IC90: < 0.05 µM
- Emax: 99.8%

Compound: Cc1cc([C@@H]2C[C@]3(C[C@H](C)N2)OCCc2cc(Cl)sc23)nn1C (racemic) [Compound 98]
- IC90: < 0.05 µM

Compound: COc1ccc([C@@H]2C[C@]3(C[C@H](C)N2)OCCc2cc(Cl)sc23)cc1O (racemic) [Compound 99]
- IC90: < 0.05 µM

Compound: C[C@H]1C[C@@]2(C[C@@H](c3cnn(C4CCOCC4)c3)N1)OCCc1cc(Cl)sc12 (racemic) [Compound 100]
- IC90: < 0.05 µM
- Multi-Tox Assay Max Activity (%): 99.3%

Compound: C[C@H]1C[C@@]2(C[C@@H](c3cnccn3)N1)OCCc1cc(Cl)sc12 (racemic) [Compound 101]
- IC90: < 0.05 µM
- Multi-Tox Assay Max Activity (%): 100.0%

Compound: CCOc1cc([C@@H]2C[C@]3(C[C@H](C)N2)OCCc2cc(Cl)sc23)ccc1O (racemic) [Compound 102]
- IC90: < 0.05 µM
- Multi-Tox Assay Max Activity (%): 99.8%

Compound: C[C@H]1C[C@@]2(C[C@@H](c3cnn(CC(C)(CO)CO)c3)N1)OCCc1cc(Cl)sc12 (racemic) [Compound 103]
- IC90: < 0.05 µM
- Multi-Tox Assay Max Activity (%): 99.6%

Compound: Cc1nc([C@@H]2C[C@]3(C[C@H](C)N2)OCCc2cc(Cl)sc23)co1 (racemic) [Compound 104]
- IC90: 0.05 to 0.5 µM
- Multi-Tox Assay Max Activity (%): 99.3%

Compound: COc1ccccc1-c1ncc([C@@H]2C[C@]3(C[C@H](C)N2)OCCc2cc(Cl)sc23)cn1 (racemic) [Compound 105]
- IC90: 0.05 to 0.5 µM
- Multi-Tox Assay Max Activity (%): 99.3%

Compound: COCc1cc([C@@H]2C[C@]3(C[C@H](C)N2)OCCc2cc(Cl)sc23)no1 (racemic) [Compound 106]
- IC90: < 0.05 µM
- Multi-Tox Assay Max Activity (%): 99.7%

Compound: CCOc1ccc([C@@H]2C[C@]3(C[C@H](C)N2)OCCc2cc(Cl)sc23)cc1O (racemic) [Compound 107]
- IC90: < 0.05 µM
- Multi-Tox Assay Max Activity (%): 99.7%

Compound: Cc1cc([C@@H]2C[C@]3(C[C@H](C)N2)OCCc2cc(Cl)sc23)ccc1O (racemic) [Compound 108]
- IC90: 0.05 to 0.5 µM

Compound: C[C@H]1C[C@@]2(C[C@@H](c3cccc(C(N)=O)c3)N1)OCCc1cc(Cl)sc12 (racemic) [Compound 109]
- IC90: 0.05 to 0.5 µM
- Multi-Tox Assay Max Activity (%): 100.0%

Compound: COc1nccc([C@@H]2C[C@]3(C[C@H](C)N2)OCCc2cc(Cl)sc23)n1 (racemic) [Compound 110]
- IC90: 0.05 to 0.5 µM
- Multi-Tox Assay Max Activity (%): 99.2%

Compound: CCC(O)Cn1cc([C@@H]2C[C@]3(C[C@H](C)N2)OCCc2cc(Cl)sc23)nn1 (mixture of isomers) [Compound 111]
- IC90: 0.05 to 0.5 µM
- Multi-Tox Assay Max Activity (%): 99.3%

Compound: C[C@H]1C[C@@]2(C[C@@H](c3ccnc(O)c3)N1)OCCc1cc(Cl)sc12 (racemic) [Compound 112]
- IC90: < 0.05 µM
- Multi-Tox Assay Max Activity (%): 100.0%

Compound: CC(=O)Nc1cccc([C@@H]2C[C@]3(C[C@H](C)N2)OCCc2cc(Cl)sc23)c1 (racemic) [Compound 113]
- IC90: 0.05 to 0.5 µM
- Multi-Tox Assay Max Activity (%): 100.0%

Compound: C[C@H]1C[C@@]2(C[C@@H](c3cccc(NS(C)(=O)=O)c3)N1)OCCc1cc(Cl)sc12 (racemic) [Compound 115]
- IC90: 0.05 to 0.5 µM
- Multi-Tox Assay Max Activity (%): 99.3%

Compound: Cc1nccc([C@@H]2C[C@]3(C[C@H](C)N2)OCCc2cc(Cl)sc23)n1 (racemic) [Compound 116]
- IC90: 0.05 to 0.5 µM
- Multi-Tox Assay Max Activity (%): 99.4%
